Assay results taken from patent US20210300962A1, “LIPID PRODRUGS OF PREGNANE NEU[…] USES THEREOF” (PureTech LYT, Inc., priority 2018, published 2021).

How the values were obtained:
[1] = Rat pharmacokinetic studies: plasma allopregnanolone after oral prodrug or ALLO, and after IV ALLO; type: in vivo, male Sprague-Dawley rats
Method: In order to assess the oral bioavailability of test compounds, pharmacokinetic studies were conducted using the following procedure. The day before drug administration, male Sprague-Dawley rats (240-320 g) were anesthetized and the carotid artery was cannulated. The rats were then allowed to regain consciousness and fasted overnight prior to the commencement of experiments with free access to water. The next morning, formulations containing parent compounds or prodrugs were administered via oral gavage or via the jugular vein cannula, and blood samples were collected from the carotid artery cannula from −5 min up to 24 h post dosing. During the blood sample collection period the rats had free access to water but remained fasted for a further 8 h following drug administration. In these allopregnanolone (ALLO) related studies, the blood samples were centrifuged at 4500×g for 5 min to separate plasma. Plasma samples were stored at −20° C. prior to assay by HPLC-MS-MS. The whole blood or plasma samples were assayed for free drug (i.e. non-glyceride associated drug) and were not hydrolized prior to assay (as was the case with the lymph samples).
FIG. 3 illustrates dose-normalized ALLO plasma concentrations following oral gavage of ALLO related formulations to conscious, carotid artery-cannulated male SD rats. The ALLO oral formulation for each rat contained 2 mg of parent ALLO (i.e., non-prodrug allopregnanolone) suspended in 2 ml of suspending vehicle (0.50 sodium carboxymethyl cellulose, 0.4% Tween 80 and 0.9% NaCl in water). Prodrug formulations for each rat contained 2 mg of the ALLO prodrug dispersed in 40 mg oleic acid, 25 mg Tween 80 and 2 ml PBS. Doses were normalized to a 2 mg/kg equivalent dose of ALLO. Data are shown as mean±SD n≥3 or mean±range when n=2. […] Doses are normalized to a 2 mg/kg equivalent ALLO dose and data are presented as mean±SD when n≥3 or mean±range when n=2.
Also shown (bottom) is the calculated area under the curve (AUC) over 0-24 h for each of the test compounds as a fraction of the IV-administered allpregnanolone control.

[2] = Dog pharmacokinetic studies: plasma ALLO after oral ALLO or prodrug, and after IV ALLO; type: in vivo, male beagle dogs; conditions: beagle dogs; for Vd: beagle, iv
Method: For the dog studies, male beagle dogs (body weights between 9.1-11.7 kg) were held in a large-animal research facility prior to the commencement of studies. The dogs were fasted for 12 h up to 30 min prior to drug administration. At 30 minutes prior to drug dosing, each animal received ˜20 g of high fat food (Teklad, TD.07096), then each animal was offered 100 g of beef-flavored canned food. Food was removed immediately prior to dosing. Following the 4 hour sample collection, food was returned (any remaining canned food and 200 g of regular diet). Water was available ad libitum throughout the study for all dogs.
For oral administration, test compounds were prepared in a suitable formulation such as a long-chain lipid based self-emulsifying drug delivery system (SEDDS) consisting of 30.5% w/w soybean oil, 30.5% w/w Maisine-CC, 31.6% w/w Cremophor EL and 7.4% w/w ethanol. Formulations were filled into hard gelatin capsules. Each animal received 2 size 000 capsules that in total contained ALLO (at 1.5 mg/kg dose) or ALLO prodrug (at 5 mg/kg dose, equivalent to approx. 1.5 mg/kg parent ALLO) in 2 grams of SEDDS formulation. Compound dissolved in the formulation was administrated to the fed dog by placing the capsules as far posterior to the pharynx as possible, closing the mouth and rubbing the throat to stimulate swallowing. Subsequently 10 mL of water was administered orally via a syringe.
For the IV group, parent ALLO (0.5 mg/kg dose) was administered as an intravenous bolus (formulation contained ALLO at concentration of 1.5 mg/mL) by way of a percutaneous catheter placed in a peripheral vein, followed by a 2 mL flush with normal saline.
Blood samples (approx. 1.5 mL each) were taken via venepuncture of the cephalic vein 5 min prior to administration up to 48 hours post-dosing. During the blood sample collection period the animals had free access to water but remained fasted for a further 4 hours following drug administration.
Plasma was separated by centrifugation and aliquots of each plasma sample transferred into eppendorf tubes and stored at −80° C. prior to analysis.
Doses are normalized to a 1.5 mg/kg equivalent ALLO dose and data are presented as mean±SD (n=4). AUC was calculated using the trapezoidal method in PKsolver—non-compartment model. Statistical significance is defined as α<0.05 when using One-way ANOVA followed by Tukey's test (paired comparison).

[3] = Non-human primate pharmacokinetic studies: plasma ALLO after oral ALLO or prodrug, and after IV ALLO; type: in vivo, male cynomolgus monkeys; conditions: cynomolgus monkeys; for Vd: iv
Method: For the non-human primate studies, male cynomolgus monkeys were held in a large-animal research facility prior to the commencement of studies. The monkeys were fasted overnight up to 30 min prior to drug administration. Thirty minutes prior to drug administration, each monkey received 30 mL of Ensure Milkshake via oral gavage and was allowed access to a normal ration of primate chow. The primate chow was removed at the time of drug administration and was then returned 4 hours after drug administration. Water was available ad libitum throughout the study for all monkeys.
Test compounds were prepared in a long-chain lipid-based self-emulsifying drug delivery system (SEDDS) consisting of 30.5% w/w soybean oil, 30.5% w/w Maisine-CC, 31.6% w/w Cremophor EL, and 7.4% w/w ethanol. Parent ALLO (i.e., non-prodrug allopregnanolone) was prepared in a formulation of 20% aqueous hydroxypropyl-p-cyclodextrin. Formulations were filled into hard gelatin capsules. Test compounds were dosed at 5 mg/kg, and parent ALLO was dosed at 1.5 mg/kg. Drug was administered in a single capsule followed by 10 mL of water by oral gavage. For the IV group, parent ALLO (0.5 mg/kg dose) was administered as an intravenous bolus (formulation contained ALLO at a concentration of 1.5 mg/mL) by way of a percutaneous catheter placed in a peripheral vein followed by a 2 mL flush with normal saline prior to removal of the catheter.
After oral administration, blood samples (approx. 1 mL each) were taken via venipuncture of a peripheral vein 5 min prior to administration up to 48 hours post-dosing. Blood samples were transferred into tubes containing dipotassium EDTA anticoagulant, and the tubes were placed on crushed ice until processing. Within 30 minutes of collection, the blood samples were processed to isolate plasma by centrifuging at 2200×g for 10 minutes at 5° C.±3° C. The plasma samples were stored in polypropylene tubes at −80° C. prior to analysis.
Doses are normalized to a 1.5 mg/kg equivalent ALLO dose and data are presented as mean±SD (n=6). AUC was calculated using the trapezoidal method in PKsolver—non-compartment model. Statistical significance is defined as α<0.05 when using One-way ANOVA followed by Tukey's test (paired comparison).

Q: For `CC(=O)[C@H]1CC[C@H]2[C@@H]3CC[C@H]4C[C@H](O)CC[C@]4(C)[C@H]3CC[C@]12C` [Allopregnanolone, 5α-pregnan-3α-ol-20-one], which AUC ([1]; male, Sprague-Dawley, plasma, 2 mg/kg, rat, IV, equivalent dose of allopregnanolone, n=1, read-out: AUC after intravenous administration) is on record?
A: ~1.45 µM·h

Q: And the Cmax ([1]; plasma Allo after oral gavage to rats, doses normalized to 2 mg/kg equivalent ALLO, mean±SD (n≥3) or mean±range (n=2))?
A: below LOQ)

Q: What about the “plasma levels after oral administration” value ([1]; rat, oral parent allopregnanolone) of the same compound?
A: below the limit of quantification

Q: And the “Apparent BA” value ([2]; IV ALLO (reference))?
A: 100.0%

Q: What about the Vd ([2]; male, dog, plasma, 0.5 mg/kg, IV ALLO, read-out: VSS (volume of distribution during the steady state phase)) of the same compound?
A: 14 ± 1.7 L/kg

Q: And the Vd ([2]; male, dog, plasma, 0.5 mg/kg, IV ALLO, read-out: VZ (volume of distribution during the elimination phase))?
A: 142 ± 29.5 L/kg

Q: And the clearance ([2]; male, dog, plasma, 0.5 mg/kg, IV ALLO, read-out: Cl (clearance))?
A: 160 ± 21.7 mL/min/kg

Q: And the Tmax ([2]; male, dog, plasma, 0.5 mg/kg, IV bolus ALLO)?
A: 0 h

Q: And the AUC(0-inf) ([2]; male, dog, plasma, 0.5 mg/kg, IV bolus ALLO, normalized to 1.5 mg/kg)?
A: 0.498 ± 0.0633 µM·h

Q: What about the Cmax ([2]; male, dog, plasma, 0.5 mg/kg, IV bolus ALLO, normalized to 1.5 mg/kg, mean±SD (n=4), read-out: Cmax (extrapolated C0)) of the same compound?
A: 3.5 ± 0.572 µM

Q: And the half-life ([2]; male, dog, plasma, 0.5 mg/kg, IV bolus ALLO, read-out: T1/2 (elimination phase half-life) (converted))?
A: 10.3 ± 0.8 h

Q: And the “Apparent BA” value ([3]; IV ALLO (reference))?
A: 100%

Q: What about the clearance ([3]; male, cynomolgus monkey, plasma, 0.5 mg/kg, IV ALLO, read-out: Cl (clearance)) of the same compound?
A: 42.2 ± 9 mL/min/kg

Q: What about the Tmax ([3]; male, cynomolgus monkey, plasma, 0.5 mg/kg, IV bolus ALLO) of the same compound?
A: 4.8 min

Q: What about the AUC(0-inf) ([3]; male, cynomolgus monkey, plasma, 0.5 mg/kg, IV bolus ALLO, normalized to 1.5 mg/kg) of the same compound?
A: 1.93 ± 0.373 µM·h

Q: What about the Cmax ([3]; male, cynomolgus monkey, plasma, 0.5 mg/kg, IV bolus ALLO, normalized to 1.5 mg/kg, mean±SD (n=6)) of the same compound?
A: 4.45 ± 0.73 µM

Q: And the half-life ([3]; male, cynomolgus monkey, plasma, 0.5 mg/kg, IV bolus ALLO, read-out: T1/2 (terminal phase half-life) (converted))?
A: 7.4 ± 1.2 h

Q: What about the Vd ([3]; male, cynomolgus monkey, plasma, 0.5 mg/kg, IV ALLO, read-out: VSS (volume of distribution during the steady state phase)) of the same compound?
A: 2.6 ± 0.9 L/kg

Q: What about the Vd ([3]; male, cynomolgus monkey, plasma, 0.5 mg/kg, IV ALLO, read-out: VZ (volume of distribution during the elimination phase)) of the same compound?
A: 26.9 ± 6.8 L/kg
